In paper PMC9994261 (Cell, 2023):
Converted amounts (≈) assume the structure as drawn. “And” between values parts separate entries of the source, which are not always exact repeats. Equal values may be shown once. Read-outs that look alike come from different tables or passages of the source.

Legend:
[1] = test system: GFP-expressing Mtb H37Rv in RAW264.7 macrophages; experiment: Intramacrophage assay (MIC for Mtb in macrophages); format: cell-based, Mycobacterium tuberculosis
Mtb H37Rv [2] = experiment: microbe, parasite or virus in culture; format: cell-based, Mycobacterium tuberculosis; details: read-out: MIC for Mtb in liquid culture
RAW264.7 cells = format: in vitro ADME, murine; details: versus neutral analog SEQ-416
Protocol: RAW264.7 cells were allowed to adhere in 96 wells plates for 4 hours before compounds were added at 10 μM. Intracellular concentrations were measured by LC-MS/MS after cellular lysis. For each point, up to 4 hours, the Intra/Extra cellular ratio was calculated. Points are the mean ± SD of four tests. Clarithromycin and Azithromycin were used as references.

M. bovis BCG Pasteur = experiment: microbe, parasite or virus in culture; format: cell-based, Mycobacterium bovis; details: for MIC: read-out: MIC in Pasteur M. bovis BCG
Mtb methylated ribosome = experiment: Mtb in vitro translation assay with methylated (erythromycin-treated) ribosome; format: biochemical, Mycobacterium tuberculosis
in vitro = in vitro ADME; details: human, Caco-2; read-out: Permeability in Caco2 cells (Papp)
physchem [3] = format: physicochemical
[4] = format: in vitro ADME, human
Protocol: The metabolic stability of test compounds was determined as described.[57]^,[58] Incubation and experimental conditions with human hepatic microsomal fractions (purchased from BD Gentest as a pooled batch from 6 donors) were as follows: microsomal proteins, 1 mg/mL; bovine serum albumin, 1 mg/mL; substrate, 5 μM; incubation duration, 20 min; cytochrome P-450 monooxygenases (CYPs) and flavin containing monooxygenases (FMOs) cofactor, 1 mM NADPH. Enzyme activity was stopped with 1 volume of acetonitrile. […] For each test compound and for each microsomal preparation, three incubations were prepared: absolute reference in buffer (without enzyme material, i.e., microsomes); incubation without NADPH cofactor (with microsomal fractions); and incubation with NADPH (with microsomal fractions). For most compounds, biotransformation, as observed in hepatic microsomal fractions in the presence of the NADPH cofactor, consists of oxidative reactions catalyzed by either CYPs or FMOs. In these conditions, the percentage of total metabolism, which corresponds to oxidative metabolism, was determined as follows: [% total metabolism] ≈ [% oxidative metabolism] = [unchanged compound (UC) peak area − NADPH UC peak area + NADPH] × 100%, where NADPH corresponds to the enzyme cofactor for oxidation reactions catalyzed by either CYP or FMO.

[5] = format: in vitro ADME
Mtb ribosome = format: biochemical, Mycobacterium tuberculosis
[6] = pH 2, 50% acetonitrile/water
physchem [7] = details: pH 7.4
physchem [8] = experiment: physchem
CYP3A4 = molecular target: T1, CYP3A4 (Homo sapiens, UniProt P08684); experiment: CYP3A4 reversible inhibition in human liver microsomes; format: in vitro ADME
T1 construct: human liver microsomes (purchased from BD Gentest as a pooled batch from 150 donors); tissue BD Gentest Cat#452117; host or cells: pooled human liver microsomes (150 donors)
T1 sequence (P08684 whole entry): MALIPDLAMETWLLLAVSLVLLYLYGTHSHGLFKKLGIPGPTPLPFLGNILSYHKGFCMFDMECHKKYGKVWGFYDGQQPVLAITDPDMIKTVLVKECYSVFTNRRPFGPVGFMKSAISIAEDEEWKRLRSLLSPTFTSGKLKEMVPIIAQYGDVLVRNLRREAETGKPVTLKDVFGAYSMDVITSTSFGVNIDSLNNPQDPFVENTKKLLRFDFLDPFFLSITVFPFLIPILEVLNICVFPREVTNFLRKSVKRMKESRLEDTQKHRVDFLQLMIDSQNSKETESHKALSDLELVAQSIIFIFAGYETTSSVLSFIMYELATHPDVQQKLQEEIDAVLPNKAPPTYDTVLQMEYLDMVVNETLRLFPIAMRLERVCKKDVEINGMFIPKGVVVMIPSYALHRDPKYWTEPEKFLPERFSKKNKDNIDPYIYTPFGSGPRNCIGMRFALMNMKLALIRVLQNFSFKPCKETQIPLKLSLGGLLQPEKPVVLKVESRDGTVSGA
Protocol: Incubations were performed with 0.1 mg/mL human liver microsomes (purchased from BD Gentest as a pooled batch from 150 donors) in a final incubation volume of 0.25 mL. The incubation medium contained 0.05 M phosphate buffer (pH 7.4) containing an NADPH regenerating system (including 1.3 mM NADP, 3.3 mM glucose 6-phosphate,3.3 mM MgCl2, and 1.0 U/mL glucose 6-phosphate dehydrogenase). Probe CYP3A4 substrates (midazolam at 3 μM and testosterone at 50 μM), were incubated for 10 and 30 min, respectively, with increasing concentrations of GM, MGM or CGM (concentration range: 1 - 30 μM). The reaction was stopped by adding acetonitrile to precipitate the proteins. The incubation mixtures were then centrifuged for 5 min at 10,000 × g, and an aliquot of the supernatant was analyzed using high-performance liquid chromatography coupled to mass spectrometry for the assessment of 1’-hydroxymidazolam and 6β-hydroxytestosterone metabolite formation.

in vivo = details: male, Swiss, mouse, po; for AUC: 30 mg/kg, oral 30 mg/kg
[9] = format: in vitro ADME; remark: listed apart in the source
[10] = format: in vitro ADME; remark: listed apart in the source
Mtb H37Rv [11] = experiment: MIC80 after overnight pre-incubation of Mtb with subinhibitory macrolide; format: cell-based; details: Mycobacterium tuberculosis, read-out: MIC80
erm37 mRNA = format: cell-based, Mycobacterium tuberculosis; details: inducer at 0.25µg/ml overnight, normalized to 23S
[12] = Mycobacterium tuberculosis variant bovis BCG, BCG

In the case of `CON=C1C[C@@H](C)O[C@@H](O[C@@H]2[C@@H](C)[C@H](O[C@H]3C[C@@H](C)N(C)C[C@H](C)O3)[C@@H](C)C(=O)O[C@H](C(C)CO[C@@H]3O[C@H](C)[C@@H](O)[C@@H](OC)[C@H]3OC)[C@H](C)[C@@H](OC(=O)CC(C)C)[C@@H](C)C(=O)[C@@](C)(OC(=O)NCc3ccccc3)C[C@@H]2C)[C@@H]1O` (stereo partly drawn) [SEQ-372, (2R,3S,4R,5R,7S,9S,10S,11R,12S,13R)-7-[(benzylcarbamoyl)oxy]-2-(1-{[(2R,3R,4R,5R,6R)-5-hydroxy-3,4-dimethoxy-6-methyltetrahydro-2H-pyran-2-yl]oxy}propan-2-yl)-10-{[(2S,3R,6R)-3-hydroxy-4-(methoxyimino)-6-methyltetrahydro-2H-pyran-2-yl]oxy}-3,5,7,9,11,13-hexamethyl-6,14-dioxo-12-{[(2S,5R,7R)-2,4,5-trimethyl-1,4-oxazepan-7-yl]oxy}oxacyclotetradecan-4-yl 3-methylbutanoate], the MIC ([1]; Mycobacterium tuberculosis, H37RV, read-out: MIC for Mtb tuberculosis in macrophages) is reported as 0.06 µM (≈ 0.0673 µg/mL), the “Increased potency against Mtb in the macrophage compared with SEQ-416” value ([1]; versus SEQ-416) is reported as “approximately 10 fold” and the MIC (Mtb H37Rv [2]; Mycobacterium tuberculosis, H37RV) is reported as 0.54 µM (≈ 0.606 µg/mL). The “Increase in macrophage accumulation compared with SEQ-416” value (RAW264.7 cells) was 20 fold, the “Growth inhibition (MIC80)” value (M. bovis BCG Pasteur) was 0.29 µM and 0.25 µM and 0.34 µM and the MIC80 (M. bovis BCG Pasteur; Mycobacterium tuberculosis variant bovis BCG, BCG, read-out: Growth inhibition (MIC80)) was 0.28 µM (≈ 0.314 µg/mL). For the same compound, the MIC (M. bovis BCG Pasteur; [12]) was 0.28 µM (≈ 0.314 µg/mL), the IC50 (Mtb methylated ribosome; read-out: Translation inhibition of Mtb methylated ribosome (IC50 μM)) was 0.054 µM and the Papp (in vitro) was 2.2 ×10⁻⁶ cm/s. The solubility (physchem [3]; MCT pH 7.4, read-out: Solubility: MCT@pH 7.4) was 1420 µg/mL (≈ 1270 µM), the solubility (physchem [3]; aqueous buffer, PBS pH 7.4, read-out: Solubility: PBS@pH 7.4) was 58.8 µg/mL (≈ 52.4 µM) and the “Metabolic stability in human liver microsomes (% metabolized compound after 20 min)” value ([4]; 20 min incubation) was 33%. For the same compound, the “Metabolic stability in human liver microsomes (% metabolized compound after 20 min), (K)” value ([4]; in presence of ketoconazole CYP3A inhibitor (K)) was 19(K) %, the “Metabolic stability in human liver microsomes (% metabolized compound after 20 min), (Q)” value ([4]; in presence of quinidine CYP2D6 inhibitor (Q)) was “/32 (Q) %” and the “Metabolic stability in rat liver microsomes (% metabolized compound after 20 min)” value [5] was 22%. The IC50 (Mtb ribosome; read-out: Inhibition of Mtb translation (IC50 μM)) was 0.039 µM, the “Chemical stability: t/12@pH 2” value [6] was “∼25 h” and the logD (physchem [7]) was 4.93. The pKa (physchem [8]) was 8.2, the “Cytochrome 3A4 inhibition (in words)” value (CYP3A4; human, pH 7.4) was “inhibited cytochrome 3A4” and the IC50 (CYP3A4; midazolam, read-out: CYP3A4 inhibition, IC50 with midazolam as substrate) was 1200 nM. For the same compound, the IC50 (CYP3A4; testosterone, read-out: CYP3A4 inhibition, IC50 with testosterone as substrate (T)) was 3800 nM, the bioavailability (in vivo) was 17% and the AUC (in vivo; AUC in lung @30 mg/kg, lung) was 18000 ng·h/mL. For the same compound, the AUC (in vivo; AUC in plasma @30 mg/kg, plasma) was 900 ng·h/mL, the “Metabolic degradation/clearance from human liver microsomes” value [9] was 0.006 mL/h/10^6 hepatocytes and the “Metabolic stability in mouse liver microsomes (% metabolized compound after 20 min)” value [10] was 8%.
Work on `CC[C@H]1OC(=O)[C@H](C)[C@@H](O[C@H]2C[C@@](C)(OC)[C@@H](O)[C@H](C)O2)[C@H](C)[C@@H](O[C@@H]2O[C@H](C)C[C@H](N(C)C)[C@H]2O)[C@](C)(OC)C[C@@H](C)C(=O)[C@H](C)[C@@H](O)[C@]1(C)O` [Clarithromycin] yielded an MIC (Mtb H37Rv [2]; listed as clarithromycin) of 8 µM (≈ 5.98 µg/mL), an MIC (Mtb H37Rv [2]) of 2 µM (≈ 1.5 µg/mL) and an MIC (M. bovis BCG Pasteur; [12]) of 0.1 µM (≈ 0.0748 µg/mL). It also gave an IC50 (Mtb methylated ribosome; methylated ribosome, read-out: IC50 methylated ribosome) of 88.1 µM, an MIC80 (Mtb H37Rv [11]; Without induction) of 2 µM (≈ 1.5 µg/mL) and an MIC80 (Mtb H37Rv [11]; overnight pre-incubation with SEQ-9 0.125µg/ml) of 4 µM (≈ 2.99 µg/mL). The MIC80 (Mtb H37Rv [11]; overnight pre-incubation with SEQ-9 0.25µg/ml) was 8 µM (≈ 5.98 µg/mL), the MIC80 (Mtb H37Rv [11]; overnight pre-incubation with clarithromycin 0.125µg/ml) was 8 µM (≈ 5.98 µg/mL) and the MIC80 (Mtb H37Rv [11]; overnight pre-incubation with clarithromycin 0.25µg/ml) was 8 µM (≈ 5.98 µg/mL). For the same compound, the IC50 (Mtb ribosome; non-methylated ribosome, read-out: IC50 ribosome) was 0.354 µM and the “erm37 mRNA fold change” value (erm37 mRNA) was 57 fold change.
